“Also recorded” adds a separate entry of the source.
Legend:
AMPK α1β1γ1 = AMPK α1β1γ1 (Homo sapiens, UniProt Q13131+Q9Y478); assay: AMPK activation by A769662, α1β1γ1 isoform (fold activation, FIG. 18); type: biochemical; conditions: estimated
[1] = system: AMPK 32-subunit-containing isoforms; assay: AMPK activation by A769662, 32-subunit-containing isoforms (FIG. 18); type: biochemical
DSS-induced colitis = DSS-induced colitis (FIGS. 20A-20E); type: in vivo; conditions: activation of AMPK with A769662
[2] = system: enteroid-derived monolayers (EDMs); assay: TEER across enteroid-derived monolayers challenged with E. coli K12 (FIG. 4B); type: cell-based, mouse and human; conditions: Metformin pre-treatment 1 μM, 18 h; E. coli K12 challenge 8 h
Method: (§1) In FIG. 4B, TEER was measured across EDMs that were pre-treated or not with Metformin (1 μM, 18 h) prior to challenge with E. coli K12 strain for 8 h. Drop in TEER (Y axis) is plotted. A representative experiment is shown. […] Activation of the AMPK→GIV stress polarity axis was monitored using pS245GIV (red). […] Arrowheads=separation of TJs and loss of pS245GIV.
(§2) Detailed Methods: Isolation of enteroids and generation of enteroid-derived monolayers (EDM): Crypts are isolated from human colonic biopsies by digesting tissue with Collagenase type I (2 mg/ml; Invitrogen), filtered with a cell strainer and washed with medium (DMEM/F12 with HEPES, 10% FBS), as outlined before. The epithelial units are suspended in […] (BD basement membrane matrix). Cell-[…] suspension (15 μl) are placed at the center of the 24-well plate on ice and placed on the incubator upside-down for polymerization (as shown in FIG. 4A). After 10 min, 500 μl of 50% conditioned media (prepared from L-WRN cells with Wnt3a, R-spondin and Noggin) containing 10 μM Y27632 (ROCK inhibitor) and 10 μM SB431542 (an inhibitor for TGF-β type I receptor) is added to the suspension. The medium is changed every 2 days and the enteroids are expanded and frozen in liquid nitrogen. To prepare EDMs, single cells from enteroids in 5% conditioned media are added to diluted […] (1:30) as done before. […]

[3] = system: enteroid-derived monolayers (EDMs); assay: Tight junction integrity by occludin / pS245GIV staining in EDMs challenged with E. coli (FIG. 4C); type: cell-based, mouse and human; conditions: Metformin pre-treatment 1 μM, 18 h; E. coli K12 8 h
Method: as §1, §2

[4] = system: Mouse intestine-derived EDMs; assay: Tight junction integrity by occludin / pS245GIV staining in EDMs exposed to LPS or H2O2 (FIG. 5); type: cell-based; conditions: 1 μM Metformin
Method: Mouse intestine-derived EDMs were exposed to indicated amounts of LPS (top) or H2O2 (bottom) after treating them or not with 1 μM Metformin. Fixed monolayers were assessed for TJs by staining for occludin (a TJ marker; green grey scales). Activation of the AMPK→GIV stress polarity axis was monitored using pS245GIV (red grey scales). […] TEER measurements agree with IF findings (not shown).

AMPK→pS245GIV axis = assay: Activity of the AMPK→pS245GIV axis in human EDMs from non-diseased aged colons; type: cell-based
CLDN2 = CLDN2 biomarker in response to IBD-associated microbes (FIG. 15); type: cell-based
high-fat fed mice = conditions: cited from earlier work

Chain of AMPK α1β1γ1 (Q13131 whole entry, canonical isoform): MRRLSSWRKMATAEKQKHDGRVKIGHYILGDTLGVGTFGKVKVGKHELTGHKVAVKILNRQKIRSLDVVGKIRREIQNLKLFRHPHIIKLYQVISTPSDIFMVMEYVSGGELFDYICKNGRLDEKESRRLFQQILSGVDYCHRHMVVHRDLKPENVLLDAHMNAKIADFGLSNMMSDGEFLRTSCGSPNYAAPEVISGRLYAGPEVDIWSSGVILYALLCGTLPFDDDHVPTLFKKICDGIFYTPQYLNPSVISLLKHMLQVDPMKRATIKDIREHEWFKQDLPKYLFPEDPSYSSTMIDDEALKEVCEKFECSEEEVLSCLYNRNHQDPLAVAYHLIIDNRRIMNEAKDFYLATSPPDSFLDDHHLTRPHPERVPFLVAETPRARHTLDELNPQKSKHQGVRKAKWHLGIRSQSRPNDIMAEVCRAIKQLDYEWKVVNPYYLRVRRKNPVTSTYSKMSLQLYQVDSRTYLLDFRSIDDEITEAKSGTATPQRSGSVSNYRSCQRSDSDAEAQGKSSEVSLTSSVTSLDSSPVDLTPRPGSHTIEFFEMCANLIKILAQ
Chain of AMPK α1β1γ1 (Q9Y478 whole entry, canonical isoform): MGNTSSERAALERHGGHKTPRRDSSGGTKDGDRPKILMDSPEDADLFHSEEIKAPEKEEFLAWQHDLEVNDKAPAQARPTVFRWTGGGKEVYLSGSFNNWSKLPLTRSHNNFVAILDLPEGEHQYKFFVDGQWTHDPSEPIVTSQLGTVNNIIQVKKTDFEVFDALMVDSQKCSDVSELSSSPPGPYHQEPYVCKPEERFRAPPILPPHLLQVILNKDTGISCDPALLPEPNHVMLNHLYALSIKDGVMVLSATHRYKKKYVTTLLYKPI
Chain of AMPK α1β1γ1 (P54619 whole entry partner, canonical isoform): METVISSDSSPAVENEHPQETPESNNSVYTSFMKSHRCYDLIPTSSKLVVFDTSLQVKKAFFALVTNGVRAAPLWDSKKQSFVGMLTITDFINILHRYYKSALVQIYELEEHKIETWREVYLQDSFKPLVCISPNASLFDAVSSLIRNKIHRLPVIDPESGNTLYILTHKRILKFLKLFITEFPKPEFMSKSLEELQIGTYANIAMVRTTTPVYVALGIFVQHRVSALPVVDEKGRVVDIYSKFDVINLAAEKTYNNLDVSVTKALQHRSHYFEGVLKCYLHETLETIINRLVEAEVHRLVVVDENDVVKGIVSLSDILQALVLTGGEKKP

N#Cc1c(O)c2c(-c3ccc(-c4ccccc4O)cc3)csc2[nH]c1=O [A769662]
AC50 (AMPK α1β1γ1): 0.0722 µM | AC50 [1]: > 40 µM | colon length (DSS-induced colitis): preserves colon length | healing of colonic mucosa (DSS-induced colitis): heals colonic mucosa

CN(C)C(=N)N=C(N)N [Metformin]
Drop in TEER [2]: significantly reduced the drop in TEER | TJ preservation (occludin pattern) [3]: TJs were better preserved; also recorded: protects TJs against stress-induced collapse | TJ preservation (occludin pattern) ([4]; H2O2 stress): TJs were better preserved; also recorded: protects TJs against stress-induced collapse | TJ preservation (occludin pattern) ([4]; LPS stress): TJs were better preserved; also recorded: protects TJs against stress-induced collapse | activity of the AMPK→pS245GIV axis (AMPK→pS245GIV axis): can be increased | increase in the CLDN2 biomarker (CLDN2): prevents the increase | endotoxemia (high-fat fed mice): attenuates endotoxemia | gut barrier integrity (high-fat fed mice): enhances gut barrier integrity | insulin signaling (high-fat fed mice): enhances insulin signaling

— patent publication US20210128500A1, “Methods of Treating Conditions Associated with Leaky Gut Barrier” (The Regents of the University of California, priority 2017, published 2021)
